Data taken from patent publication US5739145A (priority 1993, dated 1998).
Where a name gives a salt, the structure may show the parent alone.

Key:
[1] = system: rats (capsaicin-induced cough); assay: animal or person; format: in vivo; conditions: Rattus norvegicus, ip, 0.5 h
[2] = target: T1, δ opioid receptor (Mus musculus, UniProt P32300); assay: Antagonism by the δ-antagonist NTI in extracted mouse vas deferens; format: cell-based; conditions: Ke=[antagonist]/(IC50 ratio -1)
T1 construct: from tissue; host or cells: vas deferens of male ddy mice
Method: (§1) Male ddy mice were provided for experimentation. Vas deferens extracted from the mice were suspended in a Magnus tube filled with a 37° C.-heated Krebes-Henseleit solution ([…], 4.7 mM KCl, 2.5 mM CaCl2, 1.1 mM KH2 PO4, 25 mM NaHCO3, 11 mM glucose) and aerated with 5% carbon dioxide and 95% oxygen. A 0.1 Hz, 5.0 mS electrical stimulus was applied via an annular platinum electrode. The tissue contraction was recorded on a polygraph using an isometric transducer.
(§2) Then, the sample was adequately washed with a nutrient solution, and when the contraction reaction stabilized, the μ-antagonist naloxone, the δ-antagonist NTI or the κ-antagonist norBNI was added thereto, and after about 20 minutes the test compound was once again added cumulatively. The Ke value was calculated from the difference in potency between the two, according to the following equation. Ke=[concentration of added antagonist]/(IC50 ratio -1) IC50 ratio=IC50 value in presence of antagonist/IC50 value in absence of antagonist

[3] = system: mouse vas deferens; assay: Opioid activity test using extracted mouse vas deferens sample (inhibition of electrically stimulated contraction); format: cell-based, mouse (male ddy)
Method: as §1, §2

[4] = target: T2, κ-receptors (Mus musculus, UniProt P33534); assay: Antagonism by the κ-antagonist norBNI in extracted mouse vas deferens; format: cell-based; conditions: Ke=[antagonist]/(IC50 ratio -1)
T2 construct: from tissue; host or cells: vas deferens of male ddy mice
Method: as §1, §2

[5] = system: guinea pigs (cough by mechanical airway stimulation); assay: Antitussive effect by guinea pig airway stimulation method; format: in vivo, guinea pig (male Hartley); conditions: for ED50: Cavia porcellus, sc, guinea pig airway stimulation; for Number of animals exhibiting coughing/number of animals tested: guinea pig, s.c.
Method: A group of five male Hartley guinea pigs (5 weeks old) with a body weight of 330-380 g were used. They were fixed in the supine position under light anesthesia by intraperitoneal administration of 15 mg/kg of pentobarbital sodium, and the necks were cut open to expose the airways. A small hole was opened in each exposed airway, from which stimulating hair was inserted about 3 cm into the airway at a 30° angle to stimulate the wall of the airway, and the occurrence or lack of coughing was noted. […] The test compounds were subcutaneously administered, and the stimulation was performed twice at each point 15, 30, 60 and 120 minutes after administration, pronouncing effective those cases in which no coughing occurred either time.

[6] = target: T3, μ-receptors (Mus musculus, UniProt P42866); assay: Antagonism by the μ-antagonist naloxone in extracted mouse vas deferens; format: cell-based; conditions: Ke=[antagonist]/(IC50 ratio -1)
T3 construct: from tissue; host or cells: vas deferens of male ddy mice
Method: as §1, §2

T2 sequence (P33534 whole entry): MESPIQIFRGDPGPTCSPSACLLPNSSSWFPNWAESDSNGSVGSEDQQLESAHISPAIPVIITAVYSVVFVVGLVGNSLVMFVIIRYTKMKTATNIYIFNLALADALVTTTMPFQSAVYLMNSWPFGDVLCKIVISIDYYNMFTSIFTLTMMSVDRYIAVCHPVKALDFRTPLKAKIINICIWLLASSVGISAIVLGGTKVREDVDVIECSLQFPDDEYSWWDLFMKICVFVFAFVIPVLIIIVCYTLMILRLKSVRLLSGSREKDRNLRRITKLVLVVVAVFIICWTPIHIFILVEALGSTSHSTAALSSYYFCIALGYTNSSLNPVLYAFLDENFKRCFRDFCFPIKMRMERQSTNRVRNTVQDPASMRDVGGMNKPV
T1 sequence (P32300 whole entry): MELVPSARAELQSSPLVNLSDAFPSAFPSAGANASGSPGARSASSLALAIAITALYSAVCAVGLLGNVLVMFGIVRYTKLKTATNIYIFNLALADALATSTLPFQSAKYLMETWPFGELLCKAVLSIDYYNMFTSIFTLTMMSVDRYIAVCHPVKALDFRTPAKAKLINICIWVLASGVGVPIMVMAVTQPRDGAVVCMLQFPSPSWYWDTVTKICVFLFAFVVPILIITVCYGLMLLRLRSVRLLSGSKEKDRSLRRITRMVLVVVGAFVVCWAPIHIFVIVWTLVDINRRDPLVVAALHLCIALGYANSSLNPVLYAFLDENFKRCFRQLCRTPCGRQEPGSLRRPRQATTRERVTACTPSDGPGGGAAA
T3 sequence (P42866 whole entry): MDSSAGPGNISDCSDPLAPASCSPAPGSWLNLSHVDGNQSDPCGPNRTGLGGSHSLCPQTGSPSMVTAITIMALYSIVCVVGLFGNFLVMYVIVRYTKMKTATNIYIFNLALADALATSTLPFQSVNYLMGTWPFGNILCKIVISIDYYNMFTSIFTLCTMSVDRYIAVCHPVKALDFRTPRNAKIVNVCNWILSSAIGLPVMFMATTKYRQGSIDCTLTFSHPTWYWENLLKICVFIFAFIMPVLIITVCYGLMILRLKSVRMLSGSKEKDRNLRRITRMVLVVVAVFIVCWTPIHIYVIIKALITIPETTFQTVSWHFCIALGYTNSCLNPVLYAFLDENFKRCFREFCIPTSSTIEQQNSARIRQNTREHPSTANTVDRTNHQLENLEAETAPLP

SMILES	ED50 [1] [µg/kg]	Ke NTI [2] [nM]	IC50 [3] [nM]	Ke norBNI [4] [nM]	ED50 [5] [µg/kg]	Number of animals exhibiting coughing/number of animals tested ([5]; dosage 1 μg/kg)	Number of animals exhibiting coughing/number of animals tested ([5]; dosage 3 μg/kg)	Number of animals exhibiting coughing/number of animals tested ([5]; dosage 30 μg/kg)	Ke Naloxone [6] [nM]
CN(C(=O)OCc1ccccc1)[C@@H]1CC[C@@]2(O)[C@H]3Cc4ccc(O)c5c4[C@@]2(CCN3CC2CC2)[C@H]1O5 [Compound 8, 17-cyclopropylmethyl-4,5α-epoxy-3,14β-dihydroxy-6β-(N-methyl-benzyloxycarbamido)morphinan.HCl]	1.79	532	0.42	1.00	–	–	–	–	–
Cc1cccc(/C=C/C(=O)N(C)[C@@H]2CC[C@@]3(O)[C@H]4Cc5ccc(O)c6c5[C@@]3(CCN4CC3CC3)[C@H]2O6)c1 [Compound 6, 17-cyclopropylmethyl-4,5α-epoxy-3,14β-dihydroxy-6β-(N-methyl-3-methylcinnamamido)morphinan.HCl]	–	64.5	0.32	1.95	12.5	1/5	1/5	4/5	1780
CN(CCc1ccc(Cl)c(Cl)c1)[C@@H]1CC[C@@]2(O)[C@H]3Cc4ccc(O)c5c4[C@@]2(CCN3CC2CC2)[C@H]1O5 [Compound 7, 17-cyclopropylmethyl-4,5α-epoxy-3,14β-dihydroxy-6β-[N-methyl-N-2-(3,4-dichlorophenyl)ethylamino]morphinan.1.9 HCl]	437	–	–	–	–	–	–	–	–
CN(C(=O)/C=C/c1ccoc1)[C@@H]1CC[C@@]2(O)[C@H]3Cc4ccc(O)c5c4[C@@]2(CCN3CC2CC2)[C@H]1O5 [Compound 5, 17-cyclopropylmethyl-4,5α-epoxy-3,14β-dihydroxy-6β-[N-methyl-trans-3-(3-furyl)acrylamido] morphinan.HCl]	4.3	–	0.42	0.164	3.7	2/5	3/5	5/5	–
O=C(CCc1ccccc1)O[C@H]1CC[C@@]2(O)[C@H]3Cc4ccc(O)c5c4[C@@]2(CCN3CC2CC2)[C@H]1O5 [Compound 9, 17-cyclopropylmethyl-4,5α-epoxy-3,14β-dihydroxy-6α-(3-phenylpropionyloxy)morphinan.tartrate]	3300	–	–	–	–	–	–	–	–
CN(C(=O)/C=C/c1cccc(OC(F)(F)F)c1)[C@@H]1CC[C@@]2(O)[C@H]3Cc4ccc(O)c5c4[C@@]2(CCN3CC2CC2)[C@H]1O5 [Compound 10, 17-cyclopropylmethyl-4,5α-epoxy-3,14β-dihydroxy-6β-(N-methyl-3-trifluoromethoxycinnamamido)morphinan.tartrate]	2.1	17.6	–	0.17	–	–	–	–	10.8
Cc1cccc(C#CC(=O)N(C)[C@@H]2CC[C@@]3(O)[C@H]4Cc5ccc(O)c6c5[C@@]3(CCN4CC3CC3)[C@H]2O6)c1 [Compound 11, 17-cyclopropylmethyl-4,5α-epoxy-3,14β-dihydroxy-6β-[N-methyl-3-(3-methylphenyl)propiolamido]morphinan.HCl]	13.5	–	–	–	–	–	–	–	–
CN(C(=O)/C=C/c1cccc(C(F)(F)F)c1)[C@@H]1CC[C@@]2(O)[C@H]3Cc4ccc(O)c5c4[C@@]2(CCN3CC2CC2)[C@H]1O5 [Compound 4, 17-cyclopropylmethyl-4,5α-epoxy-3,14β-dihydroxy-6β-(N-methyl-3-trifluoromethylcinnamamido)morphinan.tartrate]	107	291	0.468	3.20	2.6	1/5	3/5	5/5	–
COc1ccc2c3c1O[C@H]1[C@H](N(C)C(=O)C#Cc4cccc(C)c4)CC[C@@]4(O)[C@@H](C2)N(CC2CC2)CC[C@]314 [Compound 13, 17-cyclopropylmethyl-4,5α-epoxy-3-methoxy-14β-hydroxy-6β-[N-methyl-3-(3-methylphenyl)propiolamido]morphinan.HCl]	12.1	–	–	–	–	–	–	–	–
COc1ccc2c3c1O[C@H]1[C@H](N(C)C(=O)/C=C/c4ccoc4)CC[C@@]4(O)[C@@H](C2)N(CC2CC2)CC[C@]314 [Compound 12, 17-cyclopropylmethyl-4,5α-epoxy-3-methoxy-14β-hydroxy-6β-[N-methyl-trans-3-(3-furyl)acrylamido]morphinan.HCl]	0.12	–	–	–	–	–	–	–	–
